Results taken from the supplement of paper PMC9663587.

Legend:
Flavopiridol = compound: CN1CC[C@H](c2c(O)cc(O)c3c(=O)cc(-c4ccccc4Cl)oc23)[C@H](O)C1 [Flavopiridol]; assay: GR value, 72 h; higher = faster growth (1 = untreated, <0 = killing);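 also: breast cancer and non-malignant breast epithelial lines, nine half-log doses, viable cells counted by Hoechst and LIVE/DEAD dye imaging versus time-zero plates and DMSO controls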
YKL-5-124 = compound: C=CC(=O)Nc1ccc(C(=O)Nc2[nH]nc3c2CN(C(=O)N[C@H](CN(C)C)c2ccccc2)C3(C)C)cc1 [YKL-5-124]; assay: as above
[1] = compound: CCc1cnn2c(NCc3ccc[n+]([O-])c3)cc(N3CCCC[C@H]3CCO)nc12; assay: as above
THZ531 = compound: CN(C)C/C=C/C(=O)Nc1ccc(C(=O)N2CCC[C@@H](Nc3ncc(Cl)c(-c4c[nH]c5ccccc45)n3)C2)cc1 [THZ531]; assay: as above
LEE011/Ribociclib = compound: CN(C)C(=O)c1cc2cnc(Nc3ccc(N4CCNCC4)cn3)nc2n1C1CCCC1 [LEE011/Ribociclib]; assay: as above
[2] = compound: CCN1CCN(Cc2ccc(Nc3ncc(F)c(-c4cc(F)c5nc(C)n(C(C)C)c5c4)n3)nc2)CC1; assay: as above
[3] = compound: CC(=O)c1c(C)c2cnc(Nc3ccc(N4CCNCC4)cn3)nc2n(C2CCCC2)c1=O; assay: as above
THZ1 = compound: CN(C)C/C=C/C(=O)Nc1ccc(C(=O)Nc2cccc(Nc3ncc(Cl)c(-c4c[nH]c5ccccc45)n3)c2)cc1 [THZ1]; assay: as above
Vorinostat = compound: O=C(CCCCCCC(=O)Nc1ccccc1)NO [Vorinostat]
SHP099 = compound: CC1(CCN(CC1)C2=CN=C(C(=N2)N)C3=C(C(=CC=C3)Cl)Cl)N [SHP099]
[4] = compound: CCc1cnn2c(NCc3ccc[n+]([O-])c3)cc(N3CCCC[C@H]3CCO)nc12
Buparlisib/NVP-BKM120 = compound: Nc1cc(C(F)(F)F)c(-c2cc(N3CCOCC3)nc(N3CCOCC3)n2)cn1 [Buparlisib/NVP-BKM120]
Paclitaxel = compound: CC(=O)O[C@H]1C(=O)[C@@]2(C)[C@H]([C@H](OC(=O)c3ccccc3)[C@]3(O)C[C@H](OC(=O)[C@H](O)[C@@H](NC(=O)c4ccccc4)c4ccccc4)C(C)=C1C3(C)C)[C@]1(OC(C)=O)CO[C@@H]1C[C@@H]2O [Paclitaxel]
BSJ-03-123 = compound: CC(=O)c1c(C)c2cnc(Nc3ccc(N4CCN(CCOCCOCCOCCNC(=O)COc5cccc6c5C(=O)N(C5CCC(=O)NC5=O)C6=O)CC4)cn3)nc2n(C2CCCC2)c1=O [BSJ-03-123]
[5] = compound: CCN1CCN(Cc2ccc(Nc3ncc(F)c(-c4cc(F)c5nc(C)n(C(C)C)c5c4)n3)nc2)CC1
Cabozantinib = compound: COc1cc2nccc(Oc3ccc(NC(=O)C4(C(=O)Nc5ccc(F)cc5)CC4)cc3)c2cc1OC [Cabozantinib]
AZD5363 = compound: NC1(C(=O)N[C@@H](CCO)c2ccc(Cl)cc2)CCN(c2nc[nH]c3nccc2-3)CC1 [AZD5363]
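For GR50, 72 h in this document: breast cancer and non-malignant breast epithelial cell lines, Deep Dye Drop or Dye Drop imaging, nine half-log doses, GR normalized to time-zero plates and DMSO-only controls.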

## BT549
Flavopiridol; 0.0001 µM
  GR value: 1.03 GR
Flavopiridol; 0.0003162 µM
  GR value: 0.982 GR
Flavopiridol; 0.001 µM
  GR value: 1.01 GR
Flavopiridol; 0.003162 µM
  GR value: 0.958 GR
Flavopiridol; 0.01 µM
  GR value: 1.02 GR
Flavopiridol; 0.03162 µM
  GR value: 0.894 GR
Flavopiridol; 0.1 µM
  GR value: 0.695 GR
Flavopiridol; 0.3162 µM
  GR value: 0.11 GR
Flavopiridol; 1 µM
  GR value: -0.455 GR
YKL-5-124; 0.001 µM
  GR value: 0.747 GR
YKL-5-124; 0.003162 µM
  GR value: 0.497 GR
YKL-5-124; 0.01 µM
  GR value: 0.301 GR
YKL-5-124; 0.03162 µM
  GR value: 0.125 GR
YKL-5-124; 0.1 µM
  GR value: 0.0904 GR
YKL-5-124; 0.3162 µM
  GR value: 0.0362 GR
YKL-5-124; 1 µM
  GR value: -0.0144 GR
YKL-5-124; 3.162 µM
  GR value: -0.0731 GR
YKL-5-124; 10 µM
  GR value: -0.58 GR
[1]; 0.0001 µM
  GR value: 0.971 GR
[1]; 0.0003162 µM
  GR value: 1.02 GR
[1]; 0.001 µM
  GR value: 1 GR
[1]; 0.003162 µM
  GR value: 0.996 GR
[1]; 0.01 µM
  GR value: 0.698 GR
[1]; 0.03162 µM
  GR value: -0.221 GR
[1]; 0.1 µM
  GR value: -0.261 GR
[1]; 0.3162 µM
  GR value: -0.275 GR
[1]; 1 µM
  GR value: -0.293 GR
THZ531; 0.0001 µM
  GR value: 0.997 GR
THZ531; 0.0003162 µM
  GR value: 0.974 GR
THZ531; 0.001 µM
  GR value: 1.01 GR
THZ531; 0.003162 µM
  GR value: 1.01 GR
THZ531; 0.01 µM
  GR value: 1.04 GR
THZ531; 0.03162 µM
  GR value: 0.956 GR
THZ531; 0.1 µM
  GR value: 0.849 GR
THZ531; 0.3162 µM
  GR value: 0.51 GR
THZ531; 1 µM
  GR value: -0.378 GR
LEE011/Ribociclib; 0.001 µM
  GR value: 0.972 GR
LEE011/Ribociclib; 0.003162 µM
  GR value: 1.06 GR
LEE011/Ribociclib; 0.01 µM
  GR value: 0.919 GR
LEE011/Ribociclib; 0.03162 µM
  GR value: 0.997 GR
LEE011/Ribociclib; 0.1 µM
  GR value: 1 GR
LEE011/Ribociclib; 0.3162 µM
  GR value: 0.995 GR
LEE011/Ribociclib; 1 µM
  GR value: 1 GR
LEE011/Ribociclib; 3.162 µM
  GR value: 0.966 GR
LEE011/Ribociclib; 10 µM
  GR value: 0.992 GR
[2]; 0.001 µM
  GR value: 0.992 GR
[2]; 0.003162 µM
  GR value: 1.03 GR
[2]; 0.01 µM
  GR value: 0.997 GR
[2]; 0.03162 µM
  GR value: 1.02 GR
[2]; 0.1 µM
  GR value: 0.952 GR
[2]; 0.3162 µM
  GR value: 0.963 GR
[2]; 1 µM
  GR value: 0.895 GR
[2]; 3.162 µM
  GR value: 0.588 GR
[2]; 10 µM
  GR value: 0.0335 GR
[3]; 0.0003162 µM
  GR value: 1.02 GR
[3]; 0.001 µM
  GR value: 1.04 GR
[3]; 0.003162 µM
  GR value: 1.03 GR
[3]; 0.01 µM
  GR value: 1.06 GR
[3]; 0.03162 µM
  GR value: 1.06 GR
[3]; 0.1 µM
  GR value: 1.04 GR
[3]; 0.3162 µM
  GR value: 1.03 GR
[3]; 1 µM
  GR value: 1.08 GR
[3]; 3.162 µM
  GR value: 1.07 GR
THZ1; 0.0001 µM
  GR value: 1.06 GR
THZ1; 0.0003162 µM
  GR value: 1.01 GR
THZ1; 0.001 µM
  GR value: 1.02 GR
THZ1; 0.003162 µM
  GR value: 0.979 GR
THZ1; 0.01 µM
  GR value: 0.909 GR
THZ1; 0.03162 µM
  GR value: 0.69 GR
THZ1; 0.1 µM
  GR value: 0.16 GR
THZ1; 0.3162 µM
  GR value: -0.171 GR
THZ1; 1 µM
  GR value: -0.317 GR
Vorinostat
  GR50, 72 h: 2.37 µM
SHP099
  GR50, 72 h: > 10 µM
[4]
  GR50, 72 h: 0.0124 µM
Buparlisib/NVP-BKM120
  GR50, 72 h: 1.42 µM
Paclitaxel
  GR50, 72 h: 0.00272 µM
BSJ-03-123
  GR50, 72 h: 6.36 µM
[5]
  GR50, 72 h: 3.97 µM
Cabozantinib
  GR50, 72 h: > 10 µM
AZD5363
  GR50, 72 h: > 10 µM

## CAL51
Flavopiridol; 0.0001 µM
  GR value: 0.98 GR
Flavopiridol; 0.0003162 µM
  GR value: 0.944 GR
Flavopiridol; 0.001 µM
  GR value: 0.962 GR
Flavopiridol; 0.003162 µM
  GR value: 0.909 GR
Flavopiridol; 0.01 µM
  GR value: 0.842 GR
Flavopiridol; 0.03162 µM
  GR value: 0.887 GR
Flavopiridol; 0.1 µM
  GR value: 0.708 GR
Flavopiridol; 0.3162 µM
  GR value: 0.353 GR
Flavopiridol; 1 µM
  GR value: -0.099 GR
YKL-5-124; 0.001 µM
  GR value: 0.748 GR
YKL-5-124; 0.003162 µM
  GR value: 0.59 GR
YKL-5-124; 0.01 µM
  GR value: 0.391 GR
YKL-5-124; 0.03162 µM
  GR value: 0.327 GR
YKL-5-124; 0.1 µM
  GR value: 0.314 GR
YKL-5-124; 0.3162 µM
  GR value: 0.236 GR
YKL-5-124; 1 µM
  GR value: 0.216 GR
YKL-5-124; 3.162 µM
  GR value: 0.165 GR
YKL-5-124; 10 µM
  GR value: -0.0011 GR
[1]; 0.0001 µM
  GR value: 0.999 GR
[1]; 0.0003162 µM
  GR value: 0.954 GR
[1]; 0.001 µM
  GR value: 1.03 GR
[1]; 0.003162 µM
  GR value: 0.974 GR
[1]; 0.01 µM
  GR value: 0.831 GR
[1]; 0.03162 µM
  GR value: -0.218 GR
[1]; 0.1 µM
  GR value: -0.356 GR
[1]; 0.3162 µM
  GR value: -0.355 GR
[1]; 1 µM
  GR value: -0.341 GR
THZ531; 0.0001 µM
  GR value: 0.973 GR
THZ531; 0.0003162 µM
  GR value: 0.962 GR
THZ531; 0.001 µM
  GR value: 0.912 GR
THZ531; 0.003162 µM
  GR value: 0.96 GR
THZ531; 0.01 µM
  GR value: 1.01 GR
THZ531; 0.03162 µM
  GR value: 0.937 GR
THZ531; 0.1 µM
  GR value: 0.904 GR
THZ531; 0.3162 µM
  GR value: 0.786 GR
THZ531; 1 µM
  GR value: 0.543 GR
LEE011/Ribociclib; 0.001 µM
  GR value: 0.899 GR
LEE011/Ribociclib; 0.003162 µM
  GR value: 0.874 GR
LEE011/Ribociclib; 0.01 µM
  GR value: 0.808 GR
LEE011/Ribociclib; 0.03162 µM
  GR value: 0.772 GR
LEE011/Ribociclib; 0.1 µM
  GR value: 0.693 GR
LEE011/Ribociclib; 0.3162 µM
  GR value: 0.658 GR
LEE011/Ribociclib; 1 µM
  GR value: 0.631 GR
LEE011/Ribociclib; 3.162 µM
  GR value: 0.55 GR
LEE011/Ribociclib; 10 µM
  GR value: 0.396 GR
[2]; 0.001 µM
  GR value: 0.966 GR
[2]; 0.003162 µM
  GR value: 0.882 GR
[2]; 0.01 µM
  GR value: 0.752 GR
[2]; 0.03162 µM
  GR value: 0.569 GR
[2]; 0.1 µM
  GR value: 0.501 GR
[2]; 0.3162 µM
  GR value: 0.365 GR
[2]; 1 µM
  GR value: 0.207 GR
[2]; 3.162 µM
  GR value: -0.124 GR
[2]; 10 µM
  GR value: -0.46 GR
[3]; 0.0003162 µM
  GR value: 0.968 GR
[3]; 0.001 µM
  GR value: 1.02 GR
[3]; 0.003162 µM
  GR value: 0.982 GR
[3]; 0.01 µM
  GR value: 0.911 GR
[3]; 0.03162 µM
  GR value: 0.783 GR
[3]; 0.1 µM
  GR value: 0.646 GR
[3]; 0.3162 µM
  GR value: 0.516 GR
[3]; 1 µM
  GR value: 0.446 GR
[3]; 3.162 µM
  GR value: 0.354 GR
THZ1; 0.0001 µM
  GR value: 1.05 GR
THZ1; 0.0003162 µM
  GR value: 0.971 GR
THZ1; 0.001 µM
  GR value: 0.953 GR
THZ1; 0.003162 µM
  GR value: 0.953 GR
THZ1; 0.01 µM
  GR value: 0.938 GR
THZ1; 0.03162 µM
  GR value: 0.882 GR
THZ1; 0.1 µM
  GR value: 0.871 GR
THZ1; 0.3162 µM
  GR value: 0.601 GR
THZ1; 1 µM
  GR value: 0.0924 GR
Vorinostat
  GR50, 72 h: 1.83 µM
SHP099
  GR50, 72 h: > 10 µM
[4]
  GR50, 72 h: 0.0147 µM
Buparlisib/NVP-BKM120
  GR50, 72 h: 0.989 µM
Paclitaxel
  GR50, 72 h: 0.00417 µM
BSJ-03-123
  GR50, 72 h: 4.36 µM
[5]
  GR50, 72 h: 0.113 µM
Cabozantinib
  GR50, 72 h: 7.77 µM
AZD5363
  GR50, 72 h: > 10 µM
